Assay results as given in patent US20250376441A1, “NOVEL COMPOUND AND PHARMACEUTICAL COMPOSITION COMPRISING SAME AS ACTIVE INGREDIENT” (Industry-Academic Cooperation Foundation, Yonsei University, priority 2017, published 2025).

Assays:
[1] = biological target: AMP-activated protein kinase (AMPK); experiment: AMPK kinase assay (luminescence, purified enzyme, ATP, substrate peptide); type: biochemical; settings: AMPK activation
Protocol: In order to identify an effect of the Preparation Example 6 having the highest docking score in Experimental Example 1 on activity of the AMP-activated protein kinase (AMPK), a kinase assay was performed. The kinase assay was performed as follows. […] Then, purified AMP-activated protein kinase and ATP were allowed to react on a substrate peptide for the AMP-activated protein kinase, and degrees of luminescence thereof were shown as EC50 in Table 3 and FIG. 3.

[2] = test system: Salmonella typhimurium TA100
Protocol: (§1) For each strain, treatment with a single concentration of 200 μg/plate was performed in triplicate and mutation was checked.

[3] = test system: Salmonella typhimurium TA98; experiment: Ames reverse mutation test, TA98
Protocol: as §1

[4] = test system: amyloid-beta peptide1-42 degenerative neurological disease-induced mice; experiment: Probe test (Morris water maze, platform removed); type: in vivo, ICR mice; settings: donepezil group, 90 seconds without platform, p<0.01 vs beta-amyloid group
Protocol: (§2) In order to induce a degenerative neurological disease, the experimental animals of Preparatory Example 1 were anesthetized by inhalation with 2.5% isoflurane. Then, 1 μg of amyloid-beta peptide1-42, a degenerative neurological disease-inducing substance, was administered to the animals at both hippocampal positions (AP: −2.3, L: ±2.0, H: −1.5) using a stereotaxic apparatus. […] For the administration, 1 μl was injected, at a flow rate of 0.2 μl/min, with a […] gas-tight glass syringe (Hamilton, Reno, NV, USA) using a perfusion pump (Pump 22, Harvard Apparatus, South Natick, MA, USA). Subsequently, the syringe was allowed to stand for 5 minutes and then removed.
(§3) Then, a degenerative neurological disease was induced as in Preparation Example 2.
(§4) A circular pool (diameter: 120 cm, height: 75 cm) was filled with water to a depth of 25±1 cm as in FIG. 4, and a 24 cm platform was prepared by hiding it 1 cm below the water surface. Space cues were installed on the four sides of the wall so that the aminals can identify locations, and skimmed milk powder was dissolved into water so that the animals cannot identify the platform with naked eyes. One day before the experiment, all the experimental animals were allowed to swim freely for 1 minute in a water bath having no platform, so that the animals can adapt to the swimming situation. After that, a test group was allowed to start, in any order, from two of the three quadrants except the quadrant where the platform was placed, and allowed to find the platform for 60 seconds. In a case where an animal finds the platform, the animal was allowed to stay thereon for 20 seconds. […] As soon as end of the position learning time, which is the 20-second staying time, the animal was allowed to start again from any quadrant, and the time and distance to reach the platform were measured. The procedure was performed four times a day, and all procedures were taken with a camera and analyzed with a video tracking system (Panlab, USA). Probe trials were made on the fifth day after the four-day experiment in toal was completed. The test group was allowed to swim freely for 90 seconds without the platform, thereby performing evaluation on whether the test group holds a memory of the platform location. The results are illustrated in FIGS. 5 to 7.
The results are illustrated in FIGS. 8 and 9.

[5] = test system: amyloid-beta peptide1-42 degenerative neurological disease-induced mice; experiment: Morris water maze test; type: in vivo, ICR mice; settings: donepezil group
From the text: Six-week-old ICR mice (male) were purchased, and then examined for general health for 6 days while subjecting them to quarantine and acclimation under an environment of animal breeding room. Then, healthy individuals were selected and used for the experiment. Identification of each individual was made by marking the number of each individual on the tail using a permanent marker, and identification of a breeding box was made by attaching an individual identification card on which test number, test substance name, test item, date of acquisition, acclimation period, date of grouping, test period, sex/animal number, and person in charge are indicated.
as §2, §3
After induction of the degenerative neurological disease, the following test was conducted after a one-day recovery period passed.
as §4

Half-life test = experiment: Half-life test
From the text: In order to identify whether the Preparation Example 6 according to the present invention can be orally administered, a half-life of the compound was checked. […] The results are illustrated in FIG. 18.

For `NC(=O)c1ncn([C@@H]2O[C@H](CO)[C@@H](O)[C@H]2O)c1N` [AICAR, reference compound], the EC50 [1] was 0.299 µM.

In the case of `[N-]=[N+]=[N-]` [Sodium azide, sodium azide, reference compound], the “Reverse mutation [factor] w/o S-9 mix” value ([2]; TA100, without S-9, factor versus control) is reported as “[5.5]” and the “Reverse mutation/dish (mean ± SD) w/o S-9 mix” value ([2]; TA100, without S-9, Preparation Example 6 at 200 μg/plate, Sodium azide concentration 1) is reported as 618 ± 13.

With `O=[N+]([O-])c1ccc2c(c1)Cc1ccccc1-2` [2-Nitrofluorene, 2-nitrofluorene, reference compound] the “Reverse mutation [factor] w/o S-9 mix” value ([3]; TA98, without S-9, factor versus control) was 915.0] and the “Reverse mutation/dish (mean ± SD) w/o S-9 mix” value ([3]; TA98, without S-9, Preparation Example 6 at 200 μg/plate, 2-Nitrofluorene concentration 2) was 290 ± 8.

For `COc1cc2c(cc1OC)C(=O)C(CC1CCN(Cc3ccccc3)CC1)C2` (stereo not drawn) [donepezil, reference compound], the “swimming time in the target quadrant” value [4] was 39.04 (±8.68) seconds, the “maximum time to find the platform (escape latency)” value [5] was 111.99 (±22.59) seconds and the “minimum time to find the platform (escape latency)” value [5] was 30.82 (±13.96) seconds.

For `Oc1ccc(C=Cc2cc(O)cc(O)c2)cc1` [Resveratrol, reference compound], the half-life (Half-life test) was 8 to 10 min.
